Experimental data from US11076595B2, “1-(n,n-disubstituted carbamoyl) 4-(substituted sulfonyl)triazolin-5-one derivative, 4-(n,n-disubstituted carbamoyl) 1-(substituted sulfonyl)triazolin-5-one derivative, and herbicide containing said derivative as active ingredient” (HOKKO CHEMICAL INDUSTRY CO., LTD., priority 2017, dated 2021).

Experiments:
Format in all cases: in vivo
Echinochloa crus-galli [1] = test: Test Example 13: herbicidal effect test by soil treatment in upland field; details: 120 g/10a, 14 days after treatment
In short: (§1)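 Field alluvial soil in 36 cm^2 pots had 20 seeds of each weed mixed into its top 1 cm. One day after sowing, a water-diluted emulsifiable concentrate was sprayed onto the soil at 100 liter per 10 are (120 g active ingredient per 10 are), with two replicates. Weed suppression (%) was assessed after 14 days.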

Amaranthus viridis [2] = test: as above; details: 120 g/10a, 14 days after treatment
In short: as §1

crabgrass [3] = test: as above; details: 120 g/10a, 14 days after treatment
In short: as §1

Chenopodium album [4] = test: as above; details: 120 g/10a, 14 days after treatment
In short: as §1

Scirpus juncoides [5] = test: Test Example 11: herbicidal effect test by soil treatment in paddy field; details: 120 g/10a active ingredient, 14 days after treatment
In short: (§2)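 Puddled paddy soil with N:P:K 17:17:17 fertilizer in Wagner pots; 30 seeds per species sown at 0–1 cm, flooded to about 3 cm, kept in a glass greenhouse. Water-diluted emulsifiable concentrate dripped in immediately after sowing at 120 g a.i. per 10 are. Suppression from dry weight versus untreated at 14 days.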

Echinochloa crus-galli [6] = test: as above; details: 120 g/10a active ingredient, 14 days after treatment
In short: as §2

Monochoria vaginalis [7] = test: as above; details: 120 g/10a active ingredient, 14 days after treatment
In short: as §2

Lindernia pyxidaria [8] = test: as above; details: 120 g/10a active ingredient, 14 days after treatment
In short: as §2

Scirpus juncoides [9] = test: Test Example 12: herbicidal effect test by treatment during growing period in paddy field; details: 120 g/10a; treatment seven days after sowing in flooded paddy pot; assessed 14 days after treatment
In short: (§3)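 Puddled, fertilized paddy soil in Wagner pots, sown with 30 seeds per species at 0–1 cm and flooded to ~3 cm in a glass greenhouse. Emulsifiable concentrate dripped into water 7 days after sowing at 120 g a.i. per 10 are. Suppression % from dry weight vs untreated, 14 days post-treatment, two replicates.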

Echinochloa crus-galli [10] = test: as above; details: 120 g/10a; treatment seven days after sowing in flooded paddy pot; assessed 14 days after treatment
In short: as §3

Monochoria vaginalis [11] = test: as above; details: 120 g/10a; treatment seven days after sowing in flooded paddy pot; assessed 14 days after treatment
In short: as §3

Lindernia pyxidaria [12] = test: as above; details: 120 g/10a; treatment seven days after sowing in flooded paddy pot; assessed 14 days after treatment
In short: as §3

Echinochloa crus-galli [13] = test: Test Example 14: herbicidal effect test by foliage treatment in upland field; details: 7 days after sowing, 120 g/10a, 14 days after treatment
In short: (§4)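 Emulsifiable concentrate, water-diluted, is applied post-emergence to 7-day-old sowings in field soil at 120 g active ingredient per 10 are. The weed suppression rate derives from average dry weights versus untreated controls, measured 14 days later.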

Amaranthus viridis [14] = test: as above; details: 7 days after sowing, 120 g/10a, 14 days after treatment
In short: as §4

crabgrass [15] = test: as above; details: 7 days after sowing, 120 g/10a, 14 days after treatment
In short: as §4

Chenopodium album [16] = test: as above; details: 7 days after sowing, 120 g/10a, 14 days after treatment
In short: as §4

SMILES	herbicidal effect, Echinochloa crus-galli (Echinochloa crus-galli [1])	herbicidal effect, Amaranthus viridis (Amaranthus viridis [2])	herbicidal effect, Crabgrass (crabgrass [3])	herbicidal effect, Chenopodium album (Chenopodium album [4])	Weed suppression rate (%) Scirpus juncoides (Scirpus juncoides [5])	Weed suppression rate (%) Echinochloa crus-galli (Echinochloa crus-galli [6])	Weed suppression rate (%) Monochoria vaginalis (Monochoria vaginalis [7])	Weed suppression rate (%) Lindemia pyxidaria (Lindernia pyxidaria [8])	Weed suppression rate (%) Scirpus juncoides (Scirpus juncoides [9])	Weed suppression rate (%) Echinochloa crus-galli (Echinochloa crus-galli [10])	Weed suppression rate (%) Monochoria vaginalis (Monochoria vaginalis [11])	Weed suppression rate (%) Lindemia pyxidaria (Lindernia pyxidaria [12])	herbicidal effect, Echinochloa crus-galli (Echinochloa crus-galli [13])	herbicidal effect, Amaranthus viridis (Amaranthus viridis [14])	herbicidal effect, Crabgrass (crabgrass [15])	herbicidal effect, Chenopodium album (Chenopodium album [16])
CC(C)CS(=O)(=O)n1ncn(C(=O)N(c2ccc(F)cc2F)C(C)C)c1=O [Compound 11-94]	100%	80%	100%	90%	90%	100%	100%	100%	90%	100%	90%	100%	90%	50%	90%	90%
CC(C)N(C(=O)n1cnn(S(=O)(=O)CCl)c1=O)c1ccc(F)cc1F [Compound 11-109]	100%	90%	100%	100%	90%	100%	90%	100%	90%	100%	90%	100%	90%	40%	90%	40%
Cc1ccc(N(C(=O)n2cnn(S(=O)(=O)CCl)c2=O)C(C)C)c(F)c1 [Compound 11-123]	80%	90%	90%	80%	90%	90%	80%	80%	90%	90%	80%	80%	80%	90%	90%	80%
CC(C)N(C(=O)n1cnn(S(=O)(=O)C2CC2)c1=O)c1ccc(F)cc1F [Compound 11-142, 1-cyclopropylsulfonyl-N-(2,4-difluorophenyl)-N-isopropyl-5-oxo-1,2,4-triazole-4-carboxamide]	80%	90%	90%	80%	100%	100%	90%	100%	80%	100%	90%	80%	80%	90%	90%	80%
CC(C)N(C(=O)n1cnn(S(=O)(=O)C2CC2)c1=O)c1ccccc1 [Compound 11-159]	80%	90%	90%	80%	90%	90%	80%	80%	80%	90%	90%	70%	80%	90%	90%	80%
